The values that follow come from patent publication US6753310B1, “Neovascular-specific peptides” (Otsuka Pharmaceutical Co., Ltd., priority 1998, dated 2004).

One data set deals with Meth A sarcoma. Description: Antitumor effect of adriamycin-including peptide-modified liposomes, tail vein administration. Format: in vivo, BALB/c mice. Particulars: FIG. 15; after three tail vein administrations on days 6, 9 and 12. Here is the method: Solid tumor-bearing mice were prepared by subcutaneously administering Meth A sarcoma cells (1×10^6 cells/mouse) into the left flank of five-week-old BALB/c male mice (Japan SLC). The day of implantation was taken as day 1 and, on days 6, 9 and 12, the 0.3 M glucose solution (solvent) as a control, adriamycin (ADR)-including control liposomes (liposomes including the anticancer agent but free of any angiogenesis-specific peptide of the invention), a free ADR solution prepared by dissolving the anticancer agent ADR in a concentration of 15 mg/kg (mouse) in 0.3 M glucose, and the ADR-including, angiogenesis-specific peptide-modified liposomes of the invention as prepared above in (1) were respectively administered into the tail vein. In the test, 5 tumor-bearing mice were used in each group.
The antitumor effect of each agent administered was evaluated by examining, from 5 days after tumor implantation, the tumor volume as an indicator of tumor growth and the mouse body weight change as well as the survival period (days) as an indicator of side effect, in a similar manner as in Example 4 (2).
In the figure, the ordinate denotes the tumor volume and the ascissa denotes the number of days after tumor implantation. […]

Data set [1] concerns B16BL6 melanoma tumor tissue. Description: Competitive inhibition experiment using the respective phages and synthetic 8-residue or 5-residue peptides. Particulars: FIG. 1. Format: in vivo, C57BL/6 mice. Here is the method:
Thus, 10 days after implantation of B16BL6 melanoma (1×10^6 cells) into five-week-old C57BL/6 mice (obtained from Japan SLC), a mixed solution (0.2 ml) of 0.25 μmol of one of the above synthetic peptides and the respective phage (1×10^8 colony forming units) was administered into the tail vein of each tumor-bearing mouse under anesthesia, and the colony forming units of the phage accumulated in the tumor tissue were counted in a similar manner as mentioned above.
Using a similar method as described above under (2) and using the four short-chain peptides (SEQ ID NO:13 to 16) obtained as mentioned above under (2) in lieu of the synthetic peptides (SEQ ID NO:5 and 6), the synthetic peptides and the respective phages were administered and colony forming units for the phages accumulated in the tumor tissue were counted, and the short-chain synthetic peptides were evaluated for their inhibitory effect on phage accumulation. In a control group,synthetic peptide-free phage solutions (1×10^8 colony forming units) were administered.
In each figure, the ordinate denotes the phase accumulation percentage (%) and the abscissa denotes the phage number. In FIG. 1, the open bar is for the group (control group) given the phage alone without administration of any synthetic peptide, the shaded bar is for the group given the short-chain synthetic peptide shown in SEQ ID NO:13 and the closed bar is for the group given the short-chain synthetic peptide shown in SEQ ID NO:14.
In FIG. 2, the open bar is for the group (control group) given the phage alone without administration of any synthetic peptide, the closed bar is for the group given the short-chain peptide shown in SEQ ID NO:15 (where phage No. 5 was used) and the shaded bar is for the group given the short-chain peptide shown in SEQ ID NO:16 (where phage No. 6 was used).

On to `COc1cccc2c1C(=O)c1c(O)c3c(c(O)c1C2=O)C[C@@](O)(C(=O)CO)C[C@@H]3O[C@H]1C[C@H](N)[C@H](O)[C@H](C)O1` [free ADR solution, adriamycin], for which the death of mice entry in the data set with Meth A sarcoma is reported as “all mice died”.

With “SEQ ID NO: 13: 8-Residue peptide comprising positions 1 to 8 of SEQ ID NO: 5 (DRWRPALP; phage library)”, in data set [1], the “cross reactivity between phages” value was “showed cross reactivity” and the “inhibitory activity compared with the 15-residue synthetic peptides” value is recorded as “higher in inhibitory activity than the 15-resiude synthetic peptides”. In data set [1] (phages expressing the corresponding 15-residue peptides (Nos. 5 and 6)), the “inhibition of phage accumulation by 8-residue synthetic peptides” value is listed as “inhibited the accumulation of the phages”.
